In patent US20240316047A1, “INHIBITORS OF RNA HELICASE DHX9 AND USES THEREOF” (ACCENT THERAPEUTICS, INC., priority 2022, published 2024):

Target: Human recombinant DHX9 protein (Homo sapiens (Human), UniProt Q08211)
Assay: DHX9 ATPase assay (ADP-Glo)
Type: biochemical
Conditions: for IC50: read-out: DHX9 Biochemical Inflection Point

Human recombinant DHX9 protein, sequence (Q08211 whole entry): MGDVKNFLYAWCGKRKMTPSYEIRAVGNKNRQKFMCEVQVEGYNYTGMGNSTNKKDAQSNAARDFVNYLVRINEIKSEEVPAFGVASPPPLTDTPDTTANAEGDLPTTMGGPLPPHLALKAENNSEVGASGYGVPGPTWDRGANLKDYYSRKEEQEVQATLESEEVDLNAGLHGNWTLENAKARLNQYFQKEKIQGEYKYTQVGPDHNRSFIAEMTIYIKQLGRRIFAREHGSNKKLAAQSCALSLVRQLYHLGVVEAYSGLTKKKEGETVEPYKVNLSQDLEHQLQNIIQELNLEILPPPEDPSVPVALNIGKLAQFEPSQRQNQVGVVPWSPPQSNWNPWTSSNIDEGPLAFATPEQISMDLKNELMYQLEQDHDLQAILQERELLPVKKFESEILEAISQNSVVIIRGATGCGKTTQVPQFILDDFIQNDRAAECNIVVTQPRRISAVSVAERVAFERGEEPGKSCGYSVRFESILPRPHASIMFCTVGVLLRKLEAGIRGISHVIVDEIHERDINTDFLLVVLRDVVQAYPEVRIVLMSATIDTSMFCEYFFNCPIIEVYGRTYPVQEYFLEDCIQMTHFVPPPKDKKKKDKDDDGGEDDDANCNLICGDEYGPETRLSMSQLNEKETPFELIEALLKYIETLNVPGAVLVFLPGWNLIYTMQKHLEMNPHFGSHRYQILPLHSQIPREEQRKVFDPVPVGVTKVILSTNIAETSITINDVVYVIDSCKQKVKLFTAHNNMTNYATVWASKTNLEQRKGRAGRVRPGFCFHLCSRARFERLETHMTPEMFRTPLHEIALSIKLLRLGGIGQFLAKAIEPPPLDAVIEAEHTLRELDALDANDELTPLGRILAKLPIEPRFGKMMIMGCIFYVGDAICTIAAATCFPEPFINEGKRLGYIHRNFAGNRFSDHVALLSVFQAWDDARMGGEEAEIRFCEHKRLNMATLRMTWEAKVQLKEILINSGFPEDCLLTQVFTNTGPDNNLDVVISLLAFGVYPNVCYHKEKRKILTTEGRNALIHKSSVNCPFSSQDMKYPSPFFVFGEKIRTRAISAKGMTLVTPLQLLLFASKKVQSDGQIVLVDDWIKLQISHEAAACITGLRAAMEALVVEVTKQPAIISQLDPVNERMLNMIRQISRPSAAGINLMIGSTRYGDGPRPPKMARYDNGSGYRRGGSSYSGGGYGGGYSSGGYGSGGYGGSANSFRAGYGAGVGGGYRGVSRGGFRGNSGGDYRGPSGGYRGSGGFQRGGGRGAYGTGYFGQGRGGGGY

Compound	DHX9 Biochemical Max Inhibition	IC50 [nM]
CN1CCN(c2csc(C(=O)Nc3cc(Cl)cc(NS(C)(=O)=O)c3)c2)CC1=O [Example 661]	78.6	3.2
Cc1cc(C(=O)Nc2cc(Cl)cc(NS(C)(=O)=O)c2)cn1-c1ncc(OC(C)(C)C)cc1F [Example 662]	66.1	68
Cc1cc(C(=O)Nc2cc(Cl)cc(NS(C)(=O)=O)c2)cn1-c1ncc(OC(C)(C)C)cn1 [Example 664]	68.8	87.7
Cc1cc(C(=O)Nc2cc(Cl)cc(NS(C)(=O)=O)c2)cn1-c1ncc(F)cc1-c1cncc(F)c1 [Example 666]	78.4	121
CC(C)n1cc(C(=O)Nc2cc(Cl)cc(NS(C)(=O)=O)c2)cc1-c1ncc(F)cn1 [Example 667]	67.1	145
Cc1cc(C(=O)Nc2cc(Cl)cc(NS(C)(=O)=O)c2)cn1-c1ncc(OC2COC2)cn1 [Example 669]	80.8	1.9
Cc1cc(C(=O)Nc2cc(Cl)cc(NS(C)(=O)=O)c2)cn1-c1ncc(N2CC(F)(F)C2)cc1OC(C)C [Example 672]	65.1	97.8
Cc1cc(C(=O)Nc2cc(Cl)cc(NS(C)(=O)=O)c2)cn1-c1ncc(N2CC(F)(F)C2)cc1OC1CCC1 [Example 673]	70.2	104
Cc1sc(C(=O)Nc2cc(Cl)cc(NS(C)(=O)=O)c2)cc1-c1ncc(OC(C)CO)cn1 (stereo not drawn) [Example 677]	75.1	6.8
Cc1sc(C(=O)Nc2cc(Cl)cc(NS(C)(=O)=O)c2)cc1-c1ncc(OC(C)(C)CO)cn1 [Example 678]	71.3	5.7
CN1CC(Oc2cnc(-c3cc(C(=O)Nc4cc(Cl)cc(NS(C)(=O)=O)c4)cn3CC(F)F)nc2)C1 [Example 679]	70.2	12.5
COCc1cc(C(=O)Nc2cc(Cl)cc(NS(C)(=O)=O)c2)cn1-c1ncccc1F [Example 682]	85.4	83.5
CS(=O)(=O)Nc1cc(Cl)cc(NC(=O)c2cc3c(s2)CCC3Oc2cccnc2)c1 (stereo not drawn) [Example 687]	68.1	119
Cn1cc(C(=O)Nc2cc(Cl)cc(NS(C)(=O)=O)c2)cc1-c1ccc(N2CC(C)(F)C2)cn1 [Example 688]	67.9	16.1
COCc1cnc(-c2cc(C(=O)Nc3cc(Cl)cc(NS(C)(=O)=O)c3)cn2C)nc1 [Example 690]	75.8	7.3
CCOc1cnc(-n2cc(C(=O)Nc3cc(Cl)cc(NS(C)(=O)=O)c3)cc2C(F)(F)F)nc1 [Example 693]	64.9	408
Cc1cc(C(=O)Nc2cc(Cl)cc(NS(C)(=O)=O)c2)cn1-c1ncc(N2CC(C(F)(F)F)C2)cn1 [Example 694]	73	29.3
Cn1cc(C(=O)Nc2cc(Cl)cc(NS(C)(=O)=O)c2)cc1-c1ccc(N2CC(CS(C)(=O)=O)C2)cn1 [Example 695]	69.7	8.5

Compound	DHX9 Biochemical Max Inhibition	IC50 [nM]
Cc1sc(C(=O)Nc2cc(Cl)cc(NS(C)(=O)=O)c2)cc1-c1ncc(F)cc1C#CC(C)(C)O [Example 696]	75.4	11.5
Cn1cc(C(=O)Nc2cc(Cl)cc(NS(C)(=O)=O)c2)cc1-c1ncc(OC2CN(C(=O)C3CC3)C2)cc1F [Example 697]	59.5	40.9
CCS(=O)(=O)Nc1cc(Cl)cc(NC(=O)c2cc(-c3ncc(C(F)(F)F)cc3C)c(C)s2)c1 [Example 700]	85.6	153
CS(=O)(=O)Nc1cc(Cl)cc(NC(=O)c2cc(-c3ccc(F)cn3)n(S(C)(=O)=O)c2)c1 [Example 701]	66.9	115
Cn1cc(C(=O)Nc2cc(Cl)cc(NS(C)(=O)=O)c2)cc1-c1ccc(C2CCOCC2)cn1 [Example 704]	78.1	12.5
Cc1sc(C(=O)Nc2cc(Cl)cc(NS(C)(=O)=O)c2)cc1-c1ncc(F)cc1-c1cnco1 [Example 705]	55.6	19.2
Cc1sc(C(=O)Nc2cc(Cl)cc(NS(C)(=O)=O)c2)cc1-c1ncc(OCC(F)(F)F)cn1 [Example 706]	96.1	19.6
Cc1sc(C(=O)Nc2cc(Cl)cc(NS(C)(=O)=O)c2)cc1-c1ncc(N2CC(F)(F)C2)cc1OCC(F)(F)F [Example 707]	67.1	28.3
CS(=O)(=O)Nc1cc(Cl)cc(NC(=O)c2cc(Cl)n(-c3ncc(F)cn3)c2)c1 [Example 709]	60.9	100
CS(=O)(=O)Nc1cc(Cl)cc(NC(=O)c2cc(-c3ncc(F)cn3)n(C3CC3)c2)c1 [Example 712]	74.2	56.2
Cc1cc(C(=O)Nc2cc(Cl)cc(NS(C)(=O)=O)c2)cn1-c1ncccc1OCC1CC1 [Example 713]	76	25
Cn1cc(C(=O)Nc2cc(Cl)cc(NS(C)(=O)=O)c2)cc1-c1ncc(N2CCN(C(=O)C3CC3)CC2)cc1F [Example 714]	68.7	5.3
Cc1sc(C(=O)Nc2cc(Cl)cc(NS(C)(=O)=O)c2)cc1-c1ncc(N2CC(F)(F)C2)cc1C#N [Example 715]	67.8	10.3
Cc1sc(C(=O)Nc2cc(Cl)cc(NS(C)(=O)=O)c2)nc1-c1ccc(F)cn1 [Example 716]	55.9	128
CN(C)C(=O)c1cccc(OCc2cccc(F)c2)c1-n1cc(C(=O)Nc2cc(Cl)cc(NS(C)(=O)=O)c2)cn1 [Example 717]	68.1	199
CS(=O)(=O)Nc1cc(Cl)cc(NC(=O)c2cnn(-c3c(F)cccc3OCc3cncc(F)c3)c2)c1 [Example 718]	72.7	15.7
CS(=O)(=O)Nc1cc(Cl)cc(NC(=O)c2cnn(-c3ncc(F)cc3OCc3cnco3)c2)c1 [Example 719]	69.7	84.7

Second part, the molecule after the results:

DHX9 Biochemical Max Inhibition	IC50 [nM]	Compound
66.3	33	Cc1cc(C(=O)Nc2cc(Cl)cc(NS(C)(=O)=O)c2)cn1-c1ccc(OC(C)(C)C)cn1 [Example 663]
70.1	30.9	CN1CCN(C(=O)c2cc(C(=O)Nc3cc(Cl)cc(NS(C)(=O)=O)c3)cn2-c2ccccn2)CC1 [Example 665]
82.3	7.3	Cc1cc(C(=O)Nc2cc(Cl)cc(NS(C)(=O)=O)c2)cn1-c1ccc(OC2COC2)cn1 [Example 668]
73.4	6.2	Cc1sc(C(=O)Nc2cc(Cl)cc(NS(C)(=O)=O)c2)cc1-c1ncc(OC(C)(C)C(=O)O)cn1 [Example 670]
68.8	6.8	Cc1sc(C(=O)Nc2cc(Cl)cc(NS(C)(=O)=O)c2)cc1-c1ncc(OC(C)C(=O)O)cn1 (stereo not drawn) [Example 671]
68.4	70	CS(=O)(=O)Nc1cc(Cl)cc(NC(=O)c2cnn(-c3ncccc3Oc3cccnc3)c2)c1 [Example 676]
95	3	Cc1sc(C(=O)Nc2cc(Cl)cc(NS(C)(=O)=O)c2)cc1-c1ncc(C2(F)COC2)cn1 [Example 680]
77.5	2.4	Cc1sc(C(=O)Nc2cc(Cl)cc(NS(C)(=O)=O)c2)cc1-c1ncc(C2(O)CN(C)C2)cc1F [Example 681]
62.5	1710	Cc1sc(C(=O)Nc2cc(Cl)cc(NS(C)(=O)=O)c2)c(F)c1-c1ncc(OC(C)C)cn1 [Example 683]
50.6	8310	Cc1cccnc1-c1csc(C(=O)Nc2cc(Cl)cc(NS(C)(=O)=O)c2)c1C [Example 684]
64.3	117	Cc1sc(C(=O)Nc2cc(Cl)cc(NS(C)(=O)=O)c2)cc1N1C(=O)N(c2ccccn2)C(C)(C)C1=O [Example 685]
66.6	18.2	CC(C)(C)Oc1cnc(-c2cc(C(=O)Nc3cc(Cl)cc(NS(C)(=O)=O)c3)sc2CO)nc1 [Example 686]
85	3.6	CS(=O)(=O)Nc1cc(Cl)cc(NC(=O)c2cc(-c3ccc(F)cn3)n(CCO)c2)c1 [Example 689]
68.5	35.9	CS(=O)(=O)Nc1cc(Cl)cc(NC(=O)c2cnn(-c3ncc(N4CC5(COC5)C4)cc3O)c2)c1 [Example 691]
81.5	2.7	Cc1sc(C(=O)Nc2cc(Cl)cc(NS(C)(=O)=O)c2)cc1-c1cn(C2CCOCC2)nn1 [Example 692]
75.4	1050	Cc1sc(C(=O)Nc2cc(Cl)cc(NS(C)(=O)=O)c2)cc1-c1nccn1CCc1ccccc1 [Example 698]
93.6	2.2	CC(=O)N1CCC(c2cnc(-c3cc(C(=O)Nc4cc(Cl)cc(NS(C)(=O)=O)c4)sc3C)nc2)CC1 [Example 699]
70.8	95.5	Cn1cc(C(=O)Nc2cc(Cl)cc(NS(C)(=O)=O)c2)cc1-c1ncc(N2CC3(C2)CC(F)(F)C3)cc1F [Example 702]
53.6	44.4	COc1ccc(F)c(-c2cc(C(=O)Nc3cc(Cl)cc(NS(C)(=O)=O)c3)cn2C)n1 [Example 703]
73	69.1	Cc1cc(C(=O)Nc2cc(Cl)cc(NS(C)(=O)=O)c2)cn1-c1ncc(N2CC(F)(F)C2)cc1OCC(F)(F)F [Example 708]
69	14.5	Cc1sc(C(=O)Nc2cc(Cl)cc(NS(C)(=O)=O)c2)cc1-c1ccc(C2CN(CC(F)(F)F)C2)cn1 [Example 710]
69.3	32.1	Cc1sc(C(=O)Nc2cc(Cl)cc(NS(C)(=O)=O)c2)cc1-c1ncc(S(C)(=O)=O)cn1 [Example 711]
